According to patent publication US20250296959A1, “B7-H3 TARGETING PEPTIDES AND CONSTRUCTS THEREOF” (Mariana Oncology Inc., priority 2024, published 2025):
pKd: −log10 of the molar value. Read-outs that look alike come from different tables or passages of the source. Starred links: 1 amine or outer side, 2 acyl side, 3 side chain; linkers in the order of their positions; H or OH if unused. Positions of bridges follow the written chain, without caps; N, C: chain ends. Non-standard residues stand in square brackets, D forms with d. Residues, ends and D or L forms follow the SMILES beside them. Groups on a side chain read outwards from the residue. *: point of attachment. Ala(piperidin-4-yl) = O=C([C@H](CC1CCN([*:3])CC1)N[*:1])[*:2]; DOTA = O=C(O)CN1CCN(CC(=O)O)CCN(CC(=O)*)CCN(CC(=O)O)CC1; Trp(5-F) = N[C@@H](Cc1c[nH]c2ccc(F)cc12)C(=O)O; 1Nal = N[C@@H](Cc1cccc2ccccc12)C(=O)O; Ala(4-THP) = N[C@@H](CC1CCOCC1)C(=O)O; Val(3-OH) = CC(C)(O)[C@H](N)C(=O)O; 4Pal = N[C@@H](Cc1ccncc1)C(=O)O; Tle = CC(C)(C)[C@H](N)C(=O)O; hLeu = CC(C)CC[C@H](N)C(=O)O; Dab = NCC[C@H](N)C(=O)O; Sar = CNCC(=O)O

Legend:
[1] = system: Calu-6 cell line; test: Net internalization of [177Lu]Lu-labeled peptide in Calu-6 cells; assay type: cell-based, Human; conditions: 1 hour, 37° C., glycine pH 2.5 acid wash
Summary of the method: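 Calu-6 cells, human non-engineered lung cancer expressing B7-H3, resuspended in 1% PBSA at 5 million cells/mL and incubated with the 177Lu-labeled conjugate (labeled at 80 °C, pH ~5, RP-HPLC checked). Gamma counting of the bound fraction, then of the pellet after two glycine pH 2.5 acid strips and NaOH lysis, gives internalized activity.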

[2] = biological target: T1, human 4lg B7-H3 (Homo sapiens, UniProt Q5ZPR3); test: Affinity determination by surface plasmon resonance (SPR) to 4Ig B7-H3; conditions: 4Ig B7-H3
T1 sequence (Q5ZPR3 29-534): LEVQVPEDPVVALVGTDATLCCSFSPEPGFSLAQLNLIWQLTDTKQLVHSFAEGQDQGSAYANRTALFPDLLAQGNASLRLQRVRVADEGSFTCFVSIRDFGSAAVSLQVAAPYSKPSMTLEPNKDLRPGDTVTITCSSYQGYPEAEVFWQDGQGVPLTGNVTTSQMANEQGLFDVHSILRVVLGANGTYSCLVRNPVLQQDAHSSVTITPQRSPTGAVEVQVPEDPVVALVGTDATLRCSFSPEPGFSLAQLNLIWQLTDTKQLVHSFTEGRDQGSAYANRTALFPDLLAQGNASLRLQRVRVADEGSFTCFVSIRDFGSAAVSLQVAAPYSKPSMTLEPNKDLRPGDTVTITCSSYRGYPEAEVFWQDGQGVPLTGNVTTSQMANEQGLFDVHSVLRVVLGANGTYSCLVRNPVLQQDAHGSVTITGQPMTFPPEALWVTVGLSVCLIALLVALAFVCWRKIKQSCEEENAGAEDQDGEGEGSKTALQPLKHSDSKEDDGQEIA

[3] = system: Calu-6 cell line; test: Cell associated (bound) fraction of [177Lu]Lu-labeled peptide in Calu-6 cells; assay type: cell-based, Human; conditions: 1 hour, 37° C.
Summary of the method: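 Detached B7-H3-expressing human lung cancer cells at 5 million/mL were exposed for 1 hour at 37 °C to 0.8 μCi of the 177Lu-labelled peptide, which was formulated in 1% PBSA after labelling at 80 °C, pH ~5. Supernatant and two cold washes counted as unbound, and resuspended cells gamma-counted as the cell-associated fraction.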

[4] = read-out: SPR KD—37° C., 37° C. flow cell temperature
[5] = SPR KD—25° C., 25° C. flow cell temperature
[6] = read-out: SPR KD—25° C., 25° C. flow cell temperature

Row | SMILES | % net internalization [1] | pKd [2, 4] | % cell associated fraction [3] | pKd [2, 5] | pKd ([2]; SPR KD—37° C., 37° C. flow cell temperature) | pKd [2, 6]
1 | CC(=O)N[C@@H](CCC(C)C)C(=O)N[C@@H](Cc1ccc(O)cc1)C(=O)N[C@H]1CSSC[C@@H](C(=O)N[C@@H](Cc2c[nH]c3ccc(F)cc23)C(=O)N[C@@H](Cc2ccccc2)C(=O)N[C@H](C(=O)N[C@H](CCCCNC(=O)CN2CCN(CC(=O)O)CCN(CC(=O)O)CCN(CC(=O)O)CC2)C(=O)O)C(C)(C)O)NC(=O)[C@H](Cc2ccc(O)cc2)NC(=O)[C@H](C(C)C)NC(=O)[C@H](CC(=O)O)NC(=O)[C@H](CC2CCOCC2)NC(=O)[C@H](CCCCN)NC(=O)CN(C)C(=O)[C@H](C(C)(C)C)NC1=O [compound 348, Ac-hLeu-Y-C-Tbg-Sar-K-ThpA-D-V-Y-C-5FW-F-hydroxyVal-dLys(DOTA)-COOH] (Ac-[hLeu]YC[Tle][Sar]K[Ala(4-THP)]DVYC[Trp(5-F)]F[Val(3-OH)][dK](DOTA)-OH; disulfide 3-11) | A (%≤25) | > 9.00 | B (25<%≤50) |  |  | 
2 | CC[C@H](C)[C@@H]1NC(=O)[C@@H](NC(=O)[C@H](Cc2ccc(O)cc2)NC(=O)[C@H](CCC(C)C)NC(C)=O)CSSC[C@@H](C(=O)N[C@@H](Cc2c[nH]c3ccc(F)cc23)C(=O)N[C@@H](Cc2ccccc2)C(=O)N[C@H](C(N)=O)C(C)(C)O)NC(=O)[C@H](Cc2ccc(O)cc2)NC(=O)[C@H](C(C)C)NC(=O)[C@H](CC(=O)O)NC(=O)[C@H](Cc2ccncc2)NC(=O)[C@H](CCCCNC(=O)CN2CCN(CC(=O)O)CCN(CC(=O)O)CCN(CC(=O)O)CC2)NC(=O)CNC1=O [compound 230, Ac-hLeu-Y-C-Ile-G-Lys(DOTA)-4PyA-D-V-Y-C-5FW-F-hydroxyVal-CONH2] (Ac-[hLeu]YCIGK(DOTA)[4Pal]DVYC[Trp(5-F)]F[Val(3-OH)]-NH2; disulfide 3-11) | A (%≤25) |  | B (25<%≤50) | > 9.00 |  | 
3 | CC(=O)N[C@@H](CCC(C)C)C(=O)N[C@@H](Cc1ccc(O)cc1)C(=O)N[C@H]1CSSC[C@@H](C(=O)N[C@@H](Cc2cccc3ccccc23)C(=O)N[C@@H](Cc2ccccc2)C(=O)N[C@H](C(=O)N[C@H](CCCCNC(=O)CN2CCN(CC(=O)O)CCN(CC(=O)O)CCN(CC(=O)O)CC2)C(N)=O)[C@@H](C)O)NC(=O)[C@H](Cc2ccc(O)cc2)NC(=O)[C@H](C(C)C)NC(=O)[C@H](CC(=O)O)NC(=O)[C@H](Cc2ccc(O)cc2)NC(=O)[C@H](CCCCN)NC(=O)CNC(=O)[C@H](C(C)C)NC1=O [compound 158, Ac-hLeu-Y-C-V-G-K-Y-D-V-Y-C-1Nal-F-Thr-dLys(DOTA)-CONH2] (Ac-[hLeu]YCVGKYDVYC[1Nal]FT[dK](DOTA)-NH2; disulfide 3-11) | B (25<%≤50) |  | C (%>50) | > 9.00 |  | 
4 | CC(=O)N[C@@H](CCC(C)C)C(=O)N[C@@H](Cc1ccc(O)cc1)C(=O)N[C@H]1CSSC[C@@H](C(=O)N[C@@H](Cc2c[nH]c3ccc(F)cc23)C(=O)N[C@@H](Cc2ccccc2)C(=O)N[C@H](C(=O)N[C@H](CCCCNC(=O)[C@H](CCC(=O)O)NC(=O)CN2CCN(CC(=O)O)CCN(CC(=O)O)CCN(CC(=O)O)CC2)C(=O)O)C(C)(C)O)NC(=O)[C@H](Cc2ccc(O)cc2)NC(=O)[C@H](C(C)C)NC(=O)[C@H](CC(=O)O)NC(=O)[C@H](CC2CCOCC2)NC(=O)[C@H](CC2CCNCC2)NC(=O)CNC(=O)[C@H](C(C)(C)C)NC1=O [compound 428, Ac-hLeu-Y-C-Tbg-G-PipAla-ThpA-D-V-Y-C-5FW-F-hydroxyVal-dLys(Glu-DOTA)-COOH] (Ac-[hLeu]YC[Tle]G[Ala(piperidin-4-yl)][Ala(4-THP)]DVYC[Trp(5-F)]F[Val(3-OH)][dK]([Glu-DOTA])-OH; disulfide 3-11) | A (%≤25) | > 9.00 | B (25<%≤50) |  |  | 
5 | CC[C@H](C)[C@@H]1NC(=O)[C@@H](NC(=O)[C@H](Cc2ccc(O)cc2)NC(=O)[C@H](CCC(C)C)NC(C)=O)CSSC[C@@H](C(=O)N[C@@H](Cc2c[nH]c3ccc(F)cc23)C(=O)N[C@@H](Cc2ccccc2)C(=O)N[C@H](C(N)=O)C(C)(C)O)NC(=O)[C@H](Cc2ccc(O)cc2)NC(=O)[C@H](C(C)C)NC(=O)[C@H](CC(=O)O)NC(=O)[C@H](CC2CCNCC2)NC(=O)[C@H](CCCCNC(=O)CN2CCN(CC(=O)O)CCN(CC(=O)O)CCN(CC(=O)O)CC2)NC(=O)CNC1=O [compound 203, Ac-hLeu-Y-C-Ile-G-Lys(DOTA)-PipAla-D-V-Y-C-5FW-F-hydroxyVal-CONH2] (Ac-[hLeu]YCIGK(DOTA)[Ala(piperidin-4-yl)]DVYC[Trp(5-F)]F[Val(3-OH)]-NH2; disulfide 3-11) | A (%≤25) |  | B (25<%≤50) | > 9.00 |  | 
6 | CC(=O)N[C@@H](CCC(C)C)C(=O)N[C@@H](Cc1ccc(O)cc1)C(=O)N[C@H]1CSSC[C@@H](C(=O)N[C@@H](Cc2c[nH]c3ccc(F)cc23)C(=O)N[C@@H](Cc2ccccc2)C(=O)N[C@H](C(=O)N[C@H](CCCCNC(=O)CN2CCN(CC(=O)O)CCN(CC(=O)O)CCN(CC(=O)O)CC2)C(=O)O)C(C)(C)O)NC(=O)[C@H](Cc2ccc(O)cc2)NC(=O)[C@H](C(C)C)NC(=O)[C@H](CC(=O)O)NC(=O)[C@H](CC2CCOCC2)NC(=O)[C@H](CCN)NC(=O)CNC(=O)[C@H](C(C)(C)C)NC1=O [compound 371, Ac-hLeu-Y-C-Tbg-G-Dab-ThpA-D-V-Y-C-5FW-F-hydroxyVal-dLys(DOTA)-COOH] (Ac-[hLeu]YC[Tle]G[Dab][Ala(4-THP)]DVYC[Trp(5-F)]F[Val(3-OH)][dK](DOTA)-OH; disulfide 3-11) | A (%≤25) |  | B (25<%≤50) |  | > 9.00 | 
7 | CC(=O)N[C@@H](CCC(C)C)C(=O)N[C@@H](Cc1ccc(O)cc1)C(=O)N[C@H]1CSSC[C@@H](C(=O)N[C@@H](Cc2c[nH]c3ccc(F)cc23)C(=O)N[C@@H](Cc2ccccc2)C(=O)N[C@H](C(=O)N[C@H](CCCCNC(=O)CN2CCN(CC(=O)O)CCN(CC(=O)O)CCN(CC(=O)O)CC2)C(N)=O)[C@@H](C)O)NC(=O)[C@H](Cc2ccc(O)cc2)NC(=O)[C@H](C(C)C)NC(=O)[C@H](CC(=O)O)NC(=O)[C@H](Cc2ccc(O)cc2)NC(=O)[C@H](CCCCN)NC(=O)CNC(=O)[C@H](C(C)(C)C)NC1=O [compound 76, Ac-hLeu-Y-C-Tbg-G-K-Y-D-V-Y-C-5FW-F-Thr-dLys(DOTA)-CONH2] (Ac-[hLeu]YC[Tle]GKYDVYC[Trp(5-F)]FT[dK](DOTA)-NH2; disulfide 3-11) | A (%≤25) |  | C (%>50) |  |  | > 9.00
8 | CC(=O)N[C@@H](CCC(C)C)C(=O)N[C@@H](Cc1ccc(O)cc1)C(=O)N[C@H]1CSSC[C@@H](C(=O)N[C@@H](Cc2c[nH]c3ccccc23)C(=O)N[C@@H](Cc2ccccc2)C(=O)N[C@H](C(=O)N[C@H](CCCCNC(=O)CN2CCN(CC(=O)O)CCN(CC(=O)O)CCN(CC(=O)O)CC2)C(N)=O)[C@@H](C)O)NC(=O)[C@H](Cc2ccc(O)cc2)NC(=O)[C@H](C(C)C)NC(=O)[C@H](CC(=O)O)NC(=O)[C@H](Cc2ccncc2)NC(=O)[C@H](CCCCN)NC(=O)CNC(=O)[C@H](C(C)(C)C)NC1=O [compound 157, Ac-hLeu-Y-C-Tbg-G-K-4PyA-D-V-Y-C-W-F-Thr-dLys(DOTA)-CONH2] (Ac-[hLeu]YC[Tle]GK[4Pal]DVYCWFT[dK](DOTA)-NH2; disulfide 3-11) | A (%≤25) |  | B (25<%≤50) |  |  | > 9.00
